Assay results from patent publication US4755513A, “Antimicrobial 1-substituted phenyl-4-oxoquinoline-3-carboxylic acid compounds” (Otsuka Pharmaceutical Company, Limited, priority 1985, dated 1988).
Read-outs that look alike come from different tables or passages of the source.

Columns and labels:
[1] = tested on: Staphylococcus aureus FDA 209P; assay: MIC by serial dilution method on agar plate; type: cell-based
Excerpt: (§1) The microorganisms were used in a concentration of 1×10^8 cells/ml (O.D. 660 mμ, 0.07-0.16) and 1×10^6 cells/ml (100 folds dilution).

[2] = tested on: Staphylococcus pyrogens IID S-23; assay: MIC by serial dilution method on agar plate; type: cell-based
Excerpt: as §1

[3] = tested on: Acinetobacter calcoaceticus AC-54; assay: MIC by serial dilution method on agar plate; type: cell-based
Excerpt: (§2) Chemotherapy, 22, 1126-1128 (1974)]. The microorganisms were used in a concentration of 1×10^8 cells/ml (O.D. 660 mμ, 0.07-0.16) and 1×10^6 cells/ml (100 folds dilution).

[4] = tested on: Bacillus subtilis ATCC 6633; assay: MIC by serial dilution method on agar plate; type: cell-based
Excerpt: as §2

[5] = tested on: Escherichia coli NIHJ JC-2; assay: MIC by serial dilution method on agar plate; type: cell-based
Excerpt: as §2

Escherichia coli No. 29 = assay: MIC by serial dilution method on agar plate; type: cell-based
Excerpt: as §2

[6] = tested on: Klebsiella pneumoniae NCTC 9632; assay: MIC by serial dilution method on agar plate; type: cell-based
Excerpt: as §2

[7] = tested on: Proteus inconstans IFO 12930; assay: MIC by serial dilution method on agar plate; type: cell-based
Excerpt: as §2

[8] = tested on: Proteus morganii IID Kono; assay: MIC by serial dilution method on agar plate; type: cell-based
Excerpt: as §2

[9] = tested on: Pseudomonas aeruginosa ATCC 10145; assay: MIC by serial dilution method on agar plate; type: cell-based
Excerpt: as §2

[10] = tested on: Pseudomonas aeruginosa E-2; assay: MIC by serial dilution method on agar plate; type: cell-based
Excerpt: as §2

[11] = tested on: Serratia marcescens IFO 12648; assay: MIC by serial dilution method on agar plate; type: cell-based
Excerpt: as §2

[12] = Absorption by oral administration in monkey (plasma concentration, thin layer cup bio-assay); type: in vivo; conditions: 100 mg/kg;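 also: plasma concentration in γ/ml (µg/mL) rather than the printed ng/mL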
Procedure: The test compounds were dissolved in 0.1N hydrochloric acid or suspended in 0.5% sodium carboxymethyl cellulose solution. The solution or suspension was administered into stomach of monkey (two monkeys) with cathetel. After the administration of test compounds, the blood was collected from the lower limbs vein at a fixed interval with a syringe treated with heparin. The collected blood was centrifuged at 3,000 r.p.m. for 10 minutes to separate the plasma. The concentration of the test compound was measured by a thin layer cup method (a bio-assay), wherein Bacillus subtilis ATCC 6633 was used as a bacteria for determination. Based on a standard curve, the concentration of test compound in plasma was calculated.

[13] = tested on: Streptococcus faecalis IFO 12580; assay: MIC by serial dilution method on agar plate; type: cell-based
Excerpt: as §2

CN1CCN(c2cc3c(cc2F)c(=O)c(C(=O)O)cn3-c2ccc(F)cc2)CC1 [A]
minimum inhibitory concentration (MIC) ([1]; 1 × 10^6 cells/ml): 0.195
minimum inhibitory concentration (MIC) ([1]; 1 × 10^8 cells/ml): 0.39
minimum inhibitory concentration (MIC) ([2]; 1 × 10^6 cells/ml): 3.12
minimum inhibitory concentration (MIC) ([2]; 1 × 10^8 cells/ml): 6.25
minimum inhibitory concentration (MIC) ([3]; 1 × 10^6 cells/ml): 0.39
minimum inhibitory concentration (MIC) ([3]; 1 × 10^8 cells/ml): 0.39
minimum inhibitory concentration (MIC) ([4]; 1 × 10^6 cells/ml): 0.097
minimum inhibitory concentration (MIC) ([4]; 1 × 10^8 cells/ml): 0.195
minimum inhibitory concentration (MIC) ([5]; 1 × 10^6 cells/ml): 0.195
minimum inhibitory concentration (MIC) ([5]; 1 × 10^8 cells/ml): 0.195
minimum inhibitory concentration (MIC) (Escherichia coli No. 29; 1 × 10^6 cells/ml): 0.097
minimum inhibitory concentration (MIC) (Escherichia coli No. 29; 1 × 10^8 cells/ml): 0.195
minimum inhibitory concentration (MIC) ([6]; 1 × 10^6 cells/ml): 0.195
minimum inhibitory concentration (MIC) ([6]; 1 × 10^8 cells/ml): 0.195
minimum inhibitory concentration (MIC) ([7]; 1 × 10^6 cells/ml): 3.12
minimum inhibitory concentration (MIC) ([7]; 1 × 10^8 cells/ml): 3.12
minimum inhibitory concentration (MIC) ([8]; 1 × 10^6 cells/ml): 0.78
minimum inhibitory concentration (MIC) ([8]; 1 × 10^8 cells/ml): 0.78
minimum inhibitory concentration (MIC) ([9]; 1 × 10^6 cells/ml): 3.12
minimum inhibitory concentration (MIC) ([9]; 1 × 10^8 cells/ml): 3.12
minimum inhibitory concentration (MIC) ([10]; 1 × 10^6 cells/ml): 3.12
minimum inhibitory concentration (MIC) ([10]; 1 × 10^8 cells/ml): 3.12
minimum inhibitory concentration (MIC) ([11]; 1 × 10^6 cells/ml): 0.78
minimum inhibitory concentration (MIC) ([11]; 1 × 10^8 cells/ml): 3.12

CN1CCN(c2cc3c(cc2F)c(=O)c(C(=O)O)cn3-c2ccc(O)cc2)CC1 [C]
minimum inhibitory concentration (MIC) ([1]; 1 × 10^6 cells/ml): < 0.048
minimum inhibitory concentration (MIC) ([1]; 1 × 10^8 cells/ml): 0.097
minimum inhibitory concentration (MIC) ([2]; 1 × 10^6 cells/ml): 0.78
minimum inhibitory concentration (MIC) ([2]; 1 × 10^8 cells/ml): 1.56
minimum inhibitory concentration (MIC) ([3]; 1 × 10^6 cells/ml): 0.195
minimum inhibitory concentration (MIC) ([3]; 1 × 10^8 cells/ml): 0.39
minimum inhibitory concentration (MIC) ([4]; 1 × 10^6 cells/ml): 0.097
minimum inhibitory concentration (MIC) ([4]; 1 × 10^8 cells/ml): 0.097
minimum inhibitory concentration (MIC) ([5]; 1 × 10^6 cells/ml): 0.097
minimum inhibitory concentration (MIC) ([5]; 1 × 10^8 cells/ml): 0.097
minimum inhibitory concentration (MIC) (Escherichia coli No. 29; 1 × 10^6 cells/ml): < 0.048
minimum inhibitory concentration (MIC) (Escherichia coli No. 29; 1 × 10^8 cells/ml): 0.097
minimum inhibitory concentration (MIC) ([6]; 1 × 10^6 cells/ml): < 0.048
minimum inhibitory concentration (MIC) ([6]; 1 × 10^8 cells/ml): 0.097
minimum inhibitory concentration (MIC) ([7]; 1 × 10^6 cells/ml): 0.39
minimum inhibitory concentration (MIC) ([7]; 1 × 10^8 cells/ml): 0.78
minimum inhibitory concentration (MIC) ([8]; 1 × 10^6 cells/ml): 0.39
minimum inhibitory concentration (MIC) ([8]; 1 × 10^8 cells/ml): 0.39
minimum inhibitory concentration (MIC) ([9]; 1 × 10^6 cells/ml): 0.78
minimum inhibitory concentration (MIC) ([9]; 1 × 10^8 cells/ml): 1.56
minimum inhibitory concentration (MIC) ([10]; 1 × 10^6 cells/ml): 0.39
minimum inhibitory concentration (MIC) ([10]; 1 × 10^8 cells/ml): 0.78
minimum inhibitory concentration (MIC) ([11]; 1 × 10^6 cells/ml): 0.195
minimum inhibitory concentration (MIC) ([11]; 1 × 10^8 cells/ml): 0.39
concentration at 0.5 h ([12]; Run 1, 0.5 hour, read-out: Amount of test compd. in plasma): 360 ng/mL
concentration at 1 h ([12]; Run 1, 1 hour, read-out: Amount of test compd. in plasma): 490 ng/mL
concentration at 2 h ([12]; Run 1, 2 hour, read-out: Amount of test compd. in plasma): 650 ng/mL
concentration at 4 h ([12]; Run 1, 4 hour, read-out: Amount of test compd. in plasma): 960 ng/mL
concentration at 7 h ([12]; Run 1, 7 hour, read-out: Amount of test compd. in plasma): 950 ng/mL
concentration at 24 h ([12]; Run 1, 24 hour, read-out: Amount of test compd. in plasma): 900 ng/mL
concentration at 0.5 h ([12]; Run 2, 0.5 hour, read-out: Amount of test compd. in plasma): < 390 ng/mL
concentration at 1 h ([12]; Run 2, 1 hour, read-out: Amount of test compd. in plasma): < 390 ng/mL
concentration at 2 h ([12]; Run 2, 2 hour, read-out: Amount of test compd. in plasma): < 390 ng/mL
concentration at 4 h ([12]; Run 2, 4 hour, read-out: Amount of test compd. in plasma): < 390 ng/mL
concentration at 7 h ([12]; Run 2, 7 hour, read-out: Amount of test compd. in plasma): < 390 ng/mL
concentration at 24 h ([12]; Run 2, 24 hour, read-out: Amount of test compd. in plasma): < 390 ng/mL
concentration at 0.5 h ([12]; average of two runs, 0.5 hour, read-out: Amount of test compd. in plasma, Average): < 280 ng/mL
concentration at 1 h ([12]; average of two runs, 1 hour, read-out: Amount of test compd. in plasma, Average): < 350 ng/mL
concentration at 2 h ([12]; average of two runs, 2 hour, read-out: Amount of test compd. in plasma, Average): < 430 ng/mL
concentration at 4 h ([12]; average of two runs, 4 hour, read-out: Amount of test compd. in plasma, Average): < 580 ng/mL
concentration at 7 h ([12]; average of two runs, 7 hour, read-out: Amount of test compd. in plasma, Average): < 580 ng/mL
concentration at 24 h ([12]; average of two runs, 24 hour, read-out: Amount of test compd. in plasma, Average): < 550 ng/mL

6,8-Difluoro-1-(4-hydroxy-2-fluorophenyl)-7-(1-piperazinyl)-1,4-dihydro-4-oxoquinoline-3-carboxylic acid [Example 5]
minimum inhibitory concentration (MIC) ([1]; 1 × 10^6 cells/ml): 0.097
minimum inhibitory concentration (MIC) ([1]; 1 × 10^8 cells/ml): 0.097
minimum inhibitory concentration (MIC) ([3]; 1 × 10^6 cells/ml): 0.39
minimum inhibitory concentration (MIC) ([3]; 1 × 10^8 cells/ml): 0.781
minimum inhibitory concentration (MIC) ([4]; 1 × 10^6 cells/ml): 0.195
minimum inhibitory concentration (MIC) ([4]; 1 × 10^8 cells/ml): 0.39
minimum inhibitory concentration (MIC) ([5]; 1 × 10^6 cells/ml): < 0.048
minimum inhibitory concentration (MIC) ([5]; 1 × 10^8 cells/ml): 0.097
minimum inhibitory concentration (MIC) (Escherichia coli No. 29; 1 × 10^6 cells/ml): < 0.048
minimum inhibitory concentration (MIC) (Escherichia coli No. 29; 1 × 10^8 cells/ml): 0.097
minimum inhibitory concentration (MIC) ([6]; 1 × 10^6 cells/ml): 0.097
minimum inhibitory concentration (MIC) ([6]; 1 × 10^8 cells/ml): 0.097
minimum inhibitory concentration (MIC) ([7]; 1 × 10^6 cells/ml): 1.56
minimum inhibitory concentration (MIC) ([7]; 1 × 10^8 cells/ml): 3.12
minimum inhibitory concentration (MIC) ([8]; 1 × 10^6 cells/ml): 0.781
minimum inhibitory concentration (MIC) ([8]; 1 × 10^8 cells/ml): 1.56
minimum inhibitory concentration (MIC) ([9]; 1 × 10^6 cells/ml): 1.56
minimum inhibitory concentration (MIC) ([9]; 1 × 10^8 cells/ml): 3.12
minimum inhibitory concentration (MIC) ([10]; 1 × 10^6 cells/ml): 1.56
minimum inhibitory concentration (MIC) ([10]; 1 × 10^8 cells/ml): 1.56
minimum inhibitory concentration (MIC) ([11]; 1 × 10^6 cells/ml): 0.781
minimum inhibitory concentration (MIC) ([11]; 1 × 10^8 cells/ml): 0.781
minimum inhibitory concentration (MIC) ([13]; 1 × 10^6 cells/ml): 0.781
minimum inhibitory concentration (MIC) ([13]; 1 × 10^8 cells/ml): 1.56
